The target in experiment [1] is T1, p300 (H3 peptide) (Homo sapiens, UniProt Q09472).
T1 construct: purchased Upstate Biotechnology
Nature of the experiment: Radiometric enzyme activity assay, p300 (H3 peptide). As to conditions: 5 μg/ml NR-818, 10 μM ATP. It counts as biochemical. The procedure:
(§1) GSK-3 were assayed for their ability to phosphorylate the appropriate peptide/protein substrate in the presence of 5 μg/ml NR-818 and 10 μM ATP. Using the direct radiometric approach, kinase activities were determined and expressed as % activity compared to the untreated control (Upstate Biotechnology, Lake Placid, N.Y.). Activities are given as the mean of duplicate determinations relative to control incubations in which the inhibitor was substituted with DMSO. In the following table 1 providing results for NR818, the following abbreviations are used: • CDK, cyclin-dependent kinase; • CK, casein kinase; • eEF-2K, eukaryotic elongation factor-2 kinase; • JNK, c-Jun N-terminal kinase; • MAPK, mitogen-activated protein kinase; • PKC, protein kinase C; and • PI 3-kinase, phosphatidylinositol 3-kinase.

For experiment [2], the target named is T2, GSK-3β (Homo sapiens, UniProt P49841).
T2 construct: purchased Upstate Biotechnology
T2 sequence (P49841 whole entry): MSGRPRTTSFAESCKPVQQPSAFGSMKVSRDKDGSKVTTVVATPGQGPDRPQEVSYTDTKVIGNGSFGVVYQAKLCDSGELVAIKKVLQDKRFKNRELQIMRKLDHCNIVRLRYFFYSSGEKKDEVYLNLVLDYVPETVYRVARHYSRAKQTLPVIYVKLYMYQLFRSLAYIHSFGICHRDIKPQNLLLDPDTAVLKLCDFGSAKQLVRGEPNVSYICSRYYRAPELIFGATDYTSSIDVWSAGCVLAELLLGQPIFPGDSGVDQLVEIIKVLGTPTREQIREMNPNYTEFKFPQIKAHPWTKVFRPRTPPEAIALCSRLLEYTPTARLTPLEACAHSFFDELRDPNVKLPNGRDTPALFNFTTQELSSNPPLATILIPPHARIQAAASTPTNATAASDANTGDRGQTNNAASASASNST
Nature of the experiment: Radiometric kinase activity assay. Type of experiment: biochemical. The conditions noted are these: GSK-3β; 5 μg/ml NR-818, 10 μM ATP. The procedure:
as §1
(§2) By using this experimental set-up, the inhibiting activity of NR953 on GSK-3 is also tested.

The target in experiment [3] is T3, GSK-3α (Homo sapiens, UniProt P49840).
T3 construct: purchased Upstate Biotechnology
Description: Radiometric kinase activity assay. Type of experiment: biochemical. The conditions noted are these: GSK-3α; 5 μg/ml NR-818, 10 μM ATP. The protocol: as §1, §2

Experiment [4] has as its target T4, CDK9/cyclinT1 (Homo sapiens, UniProt P50750).
T4 construct: purchased Upstate Biotechnology
Description: Radiometric kinase activity assay. It counts as biochemical. The conditions noted are these: 5 μg/ml NR-818, 10 μM ATP. The protocol:
as §1

For experiment [5], the target named is T5, PI 3-kinaseγ (Homo sapiens, UniProt P48736).
T5 construct: purchased Upstate Biotechnology
Description: Radiometric kinase activity assay. It counts as biochemical. The conditions noted are these: 5 μg/ml NR-818, 10 μM ATP. The protocol: as §1

Experiment [6] deals with T6, JNK1α1 (Homo sapiens, UniProt P45983).
T6 construct: purchased Upstate Biotechnology
Description: Radiometric kinase activity assay. It counts as biochemical. The conditions noted are these: 5 μg/ml NR-818, 10 μM ATP. The procedure: as §1

Experiment [7] concerns the target T7, CDK5/p25 (Homo sapiens, UniProt Q00535).
T7 construct: purchased Upstate Biotechnology
Description: Radiometric kinase activity assay. It counts as biochemical. As to conditions: 5 μg/ml NR-818, 10 μM ATP. The procedure: as §1

The target of experiment [8] is T8, CDK6/cyclinD3 (Homo sapiens, UniProt Q00534).
T8 construct: purchased Upstate Biotechnology
Nature of the experiment: Radiometric kinase activity assay. The conditions noted are these: 5 μg/ml NR-818, 10 μM ATP. It counts as biochemical. The protocol: as §1

Experiment [9] addresses T9, CDK3/cyclinE (Homo sapiens, UniProt Q00526).
T9 construct: purchased Upstate Biotechnology
Description: Radiometric kinase activity assay. It counts as biochemical. The conditions noted are these: 5 μg/ml NR-818, 10 μM ATP. The procedure: as §1

For experiment [10], the target named is T10, CDK7/cyclinH (Homo sapiens, UniProt P50613).
T10 construct: purchased Upstate Biotechnology
T10 sequence (P50613 whole entry): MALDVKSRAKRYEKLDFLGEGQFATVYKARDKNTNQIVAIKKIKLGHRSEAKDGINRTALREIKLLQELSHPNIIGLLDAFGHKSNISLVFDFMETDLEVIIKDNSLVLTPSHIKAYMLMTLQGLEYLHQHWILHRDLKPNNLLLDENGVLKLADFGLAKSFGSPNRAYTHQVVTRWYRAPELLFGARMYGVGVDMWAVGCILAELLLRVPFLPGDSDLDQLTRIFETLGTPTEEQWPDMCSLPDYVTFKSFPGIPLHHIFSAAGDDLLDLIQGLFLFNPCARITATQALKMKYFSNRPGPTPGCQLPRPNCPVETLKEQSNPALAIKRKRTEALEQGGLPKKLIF
T10 sequence (P51946 whole entry partner): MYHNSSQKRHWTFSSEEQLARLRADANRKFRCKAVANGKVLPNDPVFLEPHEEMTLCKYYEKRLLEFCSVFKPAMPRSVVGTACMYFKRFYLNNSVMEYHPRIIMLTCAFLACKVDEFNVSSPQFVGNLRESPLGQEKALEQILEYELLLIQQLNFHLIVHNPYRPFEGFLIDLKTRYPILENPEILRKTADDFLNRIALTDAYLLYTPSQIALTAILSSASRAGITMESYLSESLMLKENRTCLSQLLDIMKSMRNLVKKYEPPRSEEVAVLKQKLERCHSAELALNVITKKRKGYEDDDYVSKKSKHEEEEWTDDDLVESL
T10 sequence (P51948 whole entry partner): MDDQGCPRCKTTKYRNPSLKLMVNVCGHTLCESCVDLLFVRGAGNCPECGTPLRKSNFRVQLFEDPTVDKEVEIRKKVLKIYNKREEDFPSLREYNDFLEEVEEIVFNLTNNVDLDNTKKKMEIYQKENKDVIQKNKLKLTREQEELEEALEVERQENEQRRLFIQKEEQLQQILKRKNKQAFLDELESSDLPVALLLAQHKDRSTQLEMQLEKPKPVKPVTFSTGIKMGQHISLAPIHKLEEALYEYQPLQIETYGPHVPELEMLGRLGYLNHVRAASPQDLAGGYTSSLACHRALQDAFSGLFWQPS
Nature of the experiment: Radiometric kinase activity assay. It counts as biochemical. The conditions noted are these: 5 μg/ml NR-818, 10 μM ATP. The protocol: as §1

Experiment [11] concerns the target T11, PI 3-kinaseβ (Homo sapiens, UniProt P42338).
T11 construct: purchased Upstate Biotechnology
Description: Radiometric kinase activity assay. Type of experiment: biochemical. As to conditions: 5 μg/ml NR-818, 10 μM ATP. The protocol: as §1

Experiment [12] deals with T12, CDK1/cyclinB (Homo sapiens, UniProt P06493).
T12 construct: purchased Upstate Biotechnology
Description: Radiometric kinase activity assay. It counts as biochemical. As to conditions: 5 μg/ml NR-818, 10 μM ATP. The protocol: as §1

The target of experiment [13] is T13, CDK5/p35 (Homo sapiens, UniProt Q00535).
T13 construct: purchased Upstate Biotechnology
Nature of the experiment: Radiometric kinase activity assay. Type of experiment: biochemical. As to conditions: 5 μg/ml NR-818, 10 μM ATP. The procedure:
as §1

Experiment [14] deals with T14, PKCζ (Homo sapiens, UniProt Q05513).
T14 construct: purchased Upstate Biotechnology
Description: Radiometric kinase activity assay. It counts as biochemical. The conditions noted are these: 5 μg/ml NR-818, 10 μM ATP. The protocol: as §1

Experiment [15] has as its target T15, CK2 (Homo sapiens, UniProt P68400).
T15 construct: purchased Upstate Biotechnology
Description: Radiometric kinase activity assay. Type of experiment: biochemical. The conditions noted are these: 5 μg/ml NR-818, 10 μM ATP. The procedure:
as §1

For experiment [16], the target named is T16, JNK2α2 (Homo sapiens, UniProt P45984).
T16 construct: purchased Upstate Biotechnology
T16 sequence (P45984 whole entry): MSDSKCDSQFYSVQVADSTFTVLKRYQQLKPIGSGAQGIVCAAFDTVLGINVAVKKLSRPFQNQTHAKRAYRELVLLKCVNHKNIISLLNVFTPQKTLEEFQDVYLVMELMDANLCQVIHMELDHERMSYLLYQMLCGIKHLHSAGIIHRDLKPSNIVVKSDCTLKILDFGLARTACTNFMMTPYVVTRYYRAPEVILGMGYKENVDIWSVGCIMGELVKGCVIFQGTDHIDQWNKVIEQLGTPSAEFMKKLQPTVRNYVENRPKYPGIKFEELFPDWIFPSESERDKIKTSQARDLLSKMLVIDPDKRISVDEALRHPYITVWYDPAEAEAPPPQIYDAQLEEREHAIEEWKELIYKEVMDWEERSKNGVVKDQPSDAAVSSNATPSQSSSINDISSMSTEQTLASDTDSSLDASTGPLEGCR
Nature of the experiment: Radiometric kinase activity assay. It counts as biochemical. As to conditions: 5 μg/ml NR-818, 10 μM ATP. The protocol: as §1

Experiment [17] concerns M17-TAU P301L cells. Description: TAU cytotoxicity (LDH leakage) in retinoic acid incubated M17-TAU P301L cells. Type of experiment: cell-based, human. The conditions noted are these: Homo sapiens, 168 h, reduction of LDH activity of retinoic acid incubated M17-TAU P301L cells, 7 days; read-out: IC50. From the text: An TAU expression plasmid was constructed by sub-cloning the cDNA of human TAU-P301L (encoding for TAU with proline 301 substituted by a leucine residue) into mammalian expression vector pcDNA3.1 resulting in plasmid pcDNA3.1-TAU P301L. Plasmids pcDNA3.1 and pcDNA3.1-TAU P301L were transfected to human neuroblastoma cells ([…]; ATCC No. CRL-2267) and independent clonal lines with the plasmids stably integrated into the genome were selected. […] Expression of the TAU P301L genes in the cell lines was confirmed by Western analysis.
In degenerated or dead cells, lactate dehydrogenase (LDH) is leaked out of the cells into the extracellular environment due to a loss of plasma-membrane integrity. This principle was used to determine cytotoxicity by quantifying the level of leaked LDH into the growth medium.
The detailed method for determining TAU cytotoxicity was as follows: From appropriate precultures of M17-3.1 and M17-TAU(P301L) cells were seeded at 2500 cells/cm2 in Optimem Reduced Serum without phenol red (Gibco, Cat. 31985-047) supplemented with 1% fetal calf serum, 1 mM sodium pyruvate, 1× non-essential amino acids, 500 μg/ml G418 0.5× antibiotic/antimycotic. After 3 hours of incubation at 37° C./5% CO2 1 volume of Optimem Reduced Serum (same as described above; except without fetal calf serum) supplemented with 2.5 μM retinoic acid (RA) was added. The cells were further incubated for 7 days. Subsequently, LDH activity was determined using Promega Cytotox 96 Non-Radioactive cytotoxicity assay, (Cat. G1780) according the supplier's instructions.
The M17-TAU P301L cell line made it possible to assess the ability of the compounds of this invention to counteract TAU cytotoxicity. […] Potency of the relevant compounds was determined by testing them at different concentrations ranging from non-effective (thus at a relatively low concentration) to an effective concentration for their ability to reduce LDH activity of retinoic acid incubated M17-TAU P301L cells.
On the technique in general: Release of lactate dehydrogenase indicates damage to the cell membrane.

Structures are written as SMILES. ≈ marks a conversion by molar mass, not a printed value.

T1 sequence (Q09472 whole entry): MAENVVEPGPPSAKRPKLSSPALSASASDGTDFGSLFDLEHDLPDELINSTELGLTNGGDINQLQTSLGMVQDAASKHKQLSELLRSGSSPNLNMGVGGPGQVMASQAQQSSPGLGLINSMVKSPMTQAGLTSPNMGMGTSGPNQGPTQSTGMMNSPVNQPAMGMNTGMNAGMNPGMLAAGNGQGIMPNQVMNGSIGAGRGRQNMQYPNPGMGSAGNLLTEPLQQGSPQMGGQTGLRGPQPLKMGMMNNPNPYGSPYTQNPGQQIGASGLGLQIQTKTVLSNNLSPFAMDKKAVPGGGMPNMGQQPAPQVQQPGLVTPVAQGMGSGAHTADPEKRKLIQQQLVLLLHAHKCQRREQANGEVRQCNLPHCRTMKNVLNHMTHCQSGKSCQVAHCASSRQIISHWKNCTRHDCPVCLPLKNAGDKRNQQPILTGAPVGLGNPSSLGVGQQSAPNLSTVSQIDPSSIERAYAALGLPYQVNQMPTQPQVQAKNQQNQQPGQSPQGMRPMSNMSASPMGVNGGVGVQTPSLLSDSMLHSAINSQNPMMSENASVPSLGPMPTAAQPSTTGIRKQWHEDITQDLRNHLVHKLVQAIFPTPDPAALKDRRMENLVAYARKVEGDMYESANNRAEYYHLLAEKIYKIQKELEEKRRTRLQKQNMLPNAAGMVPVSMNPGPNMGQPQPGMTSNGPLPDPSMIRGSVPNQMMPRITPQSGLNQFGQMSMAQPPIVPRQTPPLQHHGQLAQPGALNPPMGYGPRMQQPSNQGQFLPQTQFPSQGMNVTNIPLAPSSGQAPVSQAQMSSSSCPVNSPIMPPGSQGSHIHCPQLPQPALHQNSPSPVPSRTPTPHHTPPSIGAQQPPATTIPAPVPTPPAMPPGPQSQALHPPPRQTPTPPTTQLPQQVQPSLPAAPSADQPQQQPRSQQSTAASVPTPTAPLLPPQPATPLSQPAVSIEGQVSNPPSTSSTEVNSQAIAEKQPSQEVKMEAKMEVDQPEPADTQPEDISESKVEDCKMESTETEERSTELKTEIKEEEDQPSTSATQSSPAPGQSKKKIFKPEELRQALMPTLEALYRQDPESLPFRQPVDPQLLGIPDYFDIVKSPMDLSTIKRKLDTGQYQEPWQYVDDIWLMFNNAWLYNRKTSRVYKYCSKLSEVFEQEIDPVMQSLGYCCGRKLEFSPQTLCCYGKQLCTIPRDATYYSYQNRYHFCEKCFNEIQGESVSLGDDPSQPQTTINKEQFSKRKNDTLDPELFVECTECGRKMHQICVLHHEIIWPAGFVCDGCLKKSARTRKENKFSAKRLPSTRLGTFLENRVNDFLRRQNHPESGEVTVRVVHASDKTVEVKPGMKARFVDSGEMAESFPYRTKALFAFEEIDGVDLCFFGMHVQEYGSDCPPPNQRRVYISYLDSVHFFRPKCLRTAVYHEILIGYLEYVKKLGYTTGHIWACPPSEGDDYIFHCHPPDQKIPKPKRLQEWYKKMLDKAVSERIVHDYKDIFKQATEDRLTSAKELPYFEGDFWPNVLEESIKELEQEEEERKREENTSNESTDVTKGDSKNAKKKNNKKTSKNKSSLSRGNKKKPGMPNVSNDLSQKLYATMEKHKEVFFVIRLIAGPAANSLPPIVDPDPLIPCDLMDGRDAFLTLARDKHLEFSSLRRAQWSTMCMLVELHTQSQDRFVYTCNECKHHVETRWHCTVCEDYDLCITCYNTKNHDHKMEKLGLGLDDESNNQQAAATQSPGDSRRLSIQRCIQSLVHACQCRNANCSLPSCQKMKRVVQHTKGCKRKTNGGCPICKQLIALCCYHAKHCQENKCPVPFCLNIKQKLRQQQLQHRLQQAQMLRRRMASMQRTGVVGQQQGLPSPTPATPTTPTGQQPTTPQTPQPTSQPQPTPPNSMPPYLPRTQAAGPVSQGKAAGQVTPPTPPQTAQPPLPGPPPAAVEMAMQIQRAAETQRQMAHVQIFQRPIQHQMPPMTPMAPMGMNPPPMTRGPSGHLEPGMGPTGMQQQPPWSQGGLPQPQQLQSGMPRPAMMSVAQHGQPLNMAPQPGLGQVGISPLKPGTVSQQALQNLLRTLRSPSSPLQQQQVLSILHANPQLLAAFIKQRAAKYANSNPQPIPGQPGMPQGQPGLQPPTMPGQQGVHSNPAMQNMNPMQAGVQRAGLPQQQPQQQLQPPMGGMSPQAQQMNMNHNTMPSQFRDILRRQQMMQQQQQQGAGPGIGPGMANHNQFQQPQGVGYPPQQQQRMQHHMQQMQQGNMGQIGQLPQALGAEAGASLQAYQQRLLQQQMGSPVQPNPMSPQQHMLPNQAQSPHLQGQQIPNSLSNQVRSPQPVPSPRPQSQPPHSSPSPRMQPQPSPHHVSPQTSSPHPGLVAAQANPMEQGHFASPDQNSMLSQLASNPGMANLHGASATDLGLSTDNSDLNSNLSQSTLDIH
T9 sequence (Q00526 whole entry): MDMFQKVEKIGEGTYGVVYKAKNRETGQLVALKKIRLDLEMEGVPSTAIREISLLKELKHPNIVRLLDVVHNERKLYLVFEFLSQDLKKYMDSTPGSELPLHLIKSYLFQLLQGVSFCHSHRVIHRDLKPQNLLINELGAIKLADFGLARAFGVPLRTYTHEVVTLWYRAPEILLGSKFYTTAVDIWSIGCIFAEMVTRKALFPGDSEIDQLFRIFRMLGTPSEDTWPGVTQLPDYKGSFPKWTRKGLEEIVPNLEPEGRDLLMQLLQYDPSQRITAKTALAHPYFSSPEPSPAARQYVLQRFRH
T9 sequence (P24864 whole entry partner): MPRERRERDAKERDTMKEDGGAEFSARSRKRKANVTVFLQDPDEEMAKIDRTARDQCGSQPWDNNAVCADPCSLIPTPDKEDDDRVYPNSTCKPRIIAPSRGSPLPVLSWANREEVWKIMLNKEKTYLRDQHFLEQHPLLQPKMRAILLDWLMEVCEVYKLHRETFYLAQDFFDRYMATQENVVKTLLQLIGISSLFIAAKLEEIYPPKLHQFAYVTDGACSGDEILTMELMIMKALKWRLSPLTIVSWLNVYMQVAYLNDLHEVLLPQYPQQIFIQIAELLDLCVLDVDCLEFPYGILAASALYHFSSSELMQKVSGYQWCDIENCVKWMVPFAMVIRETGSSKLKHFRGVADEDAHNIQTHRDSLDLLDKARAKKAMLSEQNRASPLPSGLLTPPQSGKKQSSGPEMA

One may read the IC50 as the concentration at which inhibition is half-maximal. Regarding `Cc1nc(S)n(Nc2cccc3ccccc23)c1-c1ccccc1` [HER/NR818, 4-Methyl-1-(naphthalen-1-ylamino)-5-phenyl-1,3-dihydro-imidazole-2-thione], the “Activity (% of control)” value in experiment [1] is reported as 88 % of control; in [2], 65 % of control; in [3], 70 % of control; in experiment [4], 100 % of control; in experiment [5] it was 96 % of control; in [6], 114 % of control. Besides, the “Activity (% of control)” value in experiment [7] is on record as 98 % of control; in [8], 112 % of control; in experiment [9], 103 % of control; in [10], 100 % of control; in experiment [11], 81 % of control; in experiment [12], 88 % of control. Besides, the “Activity (% of control)” value in [13] is 92 % of control; in experiment [14], 98 % of control; in experiment [15], 99 % of control; in experiment [16] it was 100 % of control. Further, in [17], the IC50 was found to be 0.013 µg/mL (≈ 0.0392 µM).

(Values after patent US20120283303A1, “USE OF N-AMINOIMIDAZOLE CYTOPROTECTIVE COMPOUNDS FOR TREATING CELL DEATH AND/OR GSK-3 MEDIATED DISEASES” (K.U.LEUVEN RESEARCH AND DEVELOPMENT, priority 2006, published 2012).)
